Experimental data as given in patent US20240409536A1, “COMPOUNDS AND METHODS FOR MODULATING SPLICING” (REMIX THERAPEUTICS INC., priority 2021, published 2024).
Counter-ions that a name gives are not always drawn.

Columns and labels:
[1] = system: HTT mRNA; test: Gene panel canonical junction qPCR assay, HTT CJ mRNA decrease; assay type: cell-based, human; conditions: Homo sapiens, canonical junction qPCR, read-out: HTT IC50 (decrease in CJ mRNA levels)
Procedure, shortened: (§1)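 IC50 values describe loss of canonical-junction transcript, fitted by 4-parameter logistic to percent response derived from fixed ΔCt windows. Read-out: RT-qPCR on lysates of compound-treated K562 or A673 cells, probes overlapping the exon junction, ΔΔCt versus housekeeping gene and DMSO control.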

[2] = system: Target C mRNA; test: Gene panel canonical junction qPCR assay, Target C CJ mRNA decrease; assay type: cell-based; conditions: Homo sapiens, canonical junction qPCR, read-out: Target C IC50 (decrease in CJ mRNA levels)
Procedure, shortened: as §1

[3] = system: Target C; test: HiBiT protein abundance assay, Target C (K562 HiBiT knock-in cells); assay type: cell-based, human; conditions: 24 hours
Procedure, shortened: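 Protein abundance read by HiBiT lytic luminescence after 24 h compound exposure (37 °C) of knock-in K562 cells, 10000 cells/well in IMDM+1% FBS. Dosing: 10 points, 3-fold, top 10 μM final, ≤0.25% DMSO. Four-parameter logistic fit gave concentration reducing abundance to 50% of untreated control.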

[4] = system: K562 cells; test: Cell Titer Glo 2.0 cell viability assay in K562 cells; conditions: 72 hours
Experimental: Compounds described herein were screened for toxicity in K562 (human chronic myelogenous leukemia) and SH-SY5Y (human neuroblastoma) cells using a Cell Titer Glo 2.0 assay.
Cells were plated at 500 cells/well (K562 cells) in 45 μL of IMDM supplemented with 10% FBS in a 384-well opaque plate. Wells containing only medium were used as a blank control. Test compounds (e.g., compounds of Formula (I), (II), or (III)) were first serially diluted in DMSO then diluted 1:100 with IMDM+10% FBS. The final concentration of DMSO was 0.1% in each well. The cells were incubated for 72 hours at 37° C. and 5% CO2 before assaying with Cell Titer Glo 2.0 reagent.

Cc1cn2cc(NC(=O)c3ccc(C4CCNC5(CC5)C4)c4nccnc34)cc(F)c2n1 (stereo not drawn) [Compound 375]
IC50 [1]: 1 to 10 µM
IC50 [2]: 1 to 10 µM
IC50 [3]: 1 to 10 µM
Viability [4]: B (B represents 100-1000 nM)

Cc1cn2nc(NC(=O)c3ccc(N4CCNCC4)c4ccnnc34)cc(C)c2n1 [Compound 100]
IC50 [1]: 0.1 to 1 µM
IC50 [2]: 0.1 to 1 µM
IC50 [3]: 0.1 to 1 µM
Viability [4]: B (B represents 100-1000 nM)

Cc1cn2cc(NC(=O)c3ccc(N4C[C@H](C)NC5(CC5)C4)c4nccnc34)cc(F)c2n1 [Compound 377]
IC50 [1]: 1 to 10 µM
IC50 [2]: > 10 µM
IC50 [3]: 1 to 10 µM
Viability [4]: B (B represents 100-1000 nM)

COc1cnc2c(N3C[C@@H](C)N[C@@H](C)C3)ccc(C(=O)Nc3cc(F)c4nc(C)cn4c3)c2n1 [Compound 205, 8-[(3R,5S)-3,5-dimethylpiperazin-1-yl]-N-{8-fluoro-2-methylimidazo[1,2-a]pyridin-6-yl}-3-methoxyquinoxaline-5-carboxamide; trifluoroacetic acid]
IC50 [1]: 0.1 to 1 µM
IC50 [2]: 0.1 to 1 µM
IC50 [3]: 0.1 to 1 µM
Viability [4]: B (B represents 100-1000 nM)

Cc1cn2cc(NC(=O)c3ccc(N4CCN5CCC[C@H]5C4)c4ccnnc34)cc(F)c2n1 [Compound 154]
IC50 [1]: 1 to 10 µM
IC50 [2]: 1 to 10 µM
IC50 [3]: 1 to 10 µM
Viability [4]: B (B represents 100-1000 nM)

Cc1ccc2c(N3CCNCC3)ccc(C(=O)Nc3cc(F)c4nc(C)cn4c3)c2n1 [Compound 162, N-{8-fluoro-2-methylimidazo[1,2-a]pyridin-6-yl}-2-methyl-5-(piperazin-1-yl)quinoline-8-carboxam-ide, trifluoroacetic acid]
IC50 [1]: 1 to 10 µM
IC50 [2]: 1 to 10 µM
IC50 [3]: 1 to 10 µM
Viability [4]: B (B represents 100-1000 nM)

Cc1cn2cc(NC(=O)c3ccc(N4CCNC5(CCOCC5)C4)c4nccnc34)cc(F)c2n1 [Compound 374]
IC50 [1]: 1 to 10 µM
IC50 [2]: 1 to 10 µM
IC50 [3]: 1 to 10 µM
Viability [4]: B (B represents 100-1000 nM)

Cc1cn2cc(NC(=O)c3ccc(N4CCN[C@H](C)C4)c4ccnnc34)cc(F)c2n1 [Compound 146]
IC50 [1]: 0.1 to 1 µM
IC50 [2]: > 10 µM
IC50 [3]: 1 to 10 µM
Viability [4]: A (A represents <100 nM)

Cc1nc(NC(=O)c2ccc(N3CCNCC3)c3ccnnc23)cc2cn(C)nc12 [Compound 178, N-{2,7-dimethylpyrazolo[3,4-c]pyridin-5-yl}-5-(piperazin-1-yl)cinnoline-8-carboxamide]
IC50 [1]: > 10 µM
IC50 [2]: > 10 µM
IC50 [3]: > 10 µM
Viability [4]: C (C represents 1000-9999 nM)

CCc1cc(NC(=O)c2ccc(N3CCNCC3)c3ccnnc23)nn2cc(C)nc12 [Compound 168, N-{8-ethyl-2-methylimidazo[1,2-b]pyridazin-6-yl}-5-(piperazin-1-yl)cinnoline-8-carboxamide trifluoroacetic acid salt]
IC50 [1]: > 10 µM
IC50 [2]: > 10 µM
IC50 [3]: > 10 µM
Viability [4]: C (C represents 1000-9999 nM)

Cc1cn2cc(NC(=O)c3ccc(N4CCNCC4)c4cccnc34)cc(F)c2n1 [Compound 165, N-{8-fluoro-2-methylimidazo[1,2-a]pyridin-6-yl}-5-(piperazin-1-yl)quinoline-8-carboxamide]
IC50 [1]: 1 to 10 µM
IC50 [2]: 1 to 10 µM
IC50 [3]: 1 to 10 µM
Viability [4]: A (A represents <100 nM)

CCNC1CCN(c2ccc(C(=O)Nc3cc(F)c4nc(C)cn4c3)c3nccnc23)CC1 [Compound 191, 8-[4-(ethylamino)piperidin-1-yl]-N-{8-fluoro-2-methylimidazo[1,2-a]pyridin-6-yl}quinoxaline-5-carboxamide]
IC50 [1]: 0.1 to 1 µM
IC50 [2]: > 10 µM
IC50 [3]: 1 to 10 µM
Viability [4]: B (B represents 100-1000 nM)

CN[C@@H]1CCN(c2ccc(C(=O)Nc3cc(F)c4nc(C)cn4c3)c3nc(OC)cnc23)C1 [Compound 204, (R)—N-{8-fluoro-2-methylimidazo[1,2-a]pyridin-6-yl}-3-methoxy-8-[3-(methylamino)pyrrolidin-1-yl]quinoxaline-5-carboxamide; trifluoroacetic acid]
IC50 [1]: > 10 µM
IC50 [2]: > 10 µM
IC50 [3]: 1 to 10 µM
Viability [4]: A (A represents <100 nM)

Cc1cn2cc(NC(=O)c3ccc(N4C[C@@H](C)N[C@@H](C)C4)c4nccnc34)cc(F)c2n1 [Compound 186, 8-(3,5-dimethylpiperazin-1-yl)-N-{8-fluoro-2-methylimidazo[1,2-a]pyridin-6-yl}quinoxaline-5-carboxamide]
IC50 [1]: 1 to 10 µM
IC50 [2]: > 10 µM
IC50 [3]: 1 to 10 µM

Cc1ccc2c(N3CCC(N(C)C)CC3)ccc(C(=O)Nc3cc(F)c4nc(C)cn4c3)c2n1 [Compound 215, 5-[4-(dimethylamino)piperidin-1-yl]-N-{8-fluoro-2-methylimidazo[1,2-a]pyridin-6-yl}-2-methylquinoline-8-carboxamide]
IC50 [1]: 0.1 to 1 µM
IC50 [2]: 1 to 10 µM
IC50 [3]: 1 to 10 µM
Viability [4]: B (B represents 100-1000 nM)

Cc1cn2cc(NC(=O)c3ccc(N4CCN5CCC[C@@H]5C4)c4ccnnc34)cc(F)c2n1 [Compound 153]
IC50 [1]: 0.1 to 1 µM
IC50 [2]: 1 to 10 µM
IC50 [3]: 1 to 10 µM
Viability [4]: B (B represents 100-1000 nM)

CNCC1CCN(c2ccc(C(=O)Nc3cc(F)c4nc(C)cn4c3)c3nccnc23)CC1 [Compound 192, N-{8-fluoro-2-methylimidazo[1,2-a]pyridin-6-yl}-8-{4-[(methylamino)methyl]piperidin-1-yl}quinoxaline-5-carboxamide trifluoroacetate]
IC50 [1]: 1 to 10 µM
IC50 [2]: 1 to 10 µM
IC50 [3]: 1 to 10 µM
Viability [4]: C (C represents 1000-9999 nM)

COc1ccc2c(N3CCNCC3)ccc(C(=O)Nc3cc(F)c4nc(C)cn4c3)c2n1 [Compound 169, N-{8-fluoro-2-methylimidazo[1,2-a]pyridin-6-yl}-2-methoxy-5-(piperazin-1-yl)quinoline-8-carboxamide]
IC50 [1]: 1 to 10 µM
IC50 [2]: 1 to 10 µM
IC50 [3]: 1 to 10 µM
Viability [4]: A (A represents <100 nM)

COc1cc2c(N3CCNCC3)ccc(C(=O)Nc3cc(F)c4nc(C)cn4c3)c2nn1 [Compound 183, N-{8-fluoro-2-methylimidazo[1,2-a]pyridin-6-yl}-3-methoxy-5-(piperazin-1-yl)cinnoline-8-carboxamide]
IC50 [1]: 1 to 10 µM
IC50 [2]: > 10 µM
IC50 [3]: 1 to 10 µM
Viability [4]: B (B represents 100-1000 nM)

Cc1cn2cc(NC(=O)c3ccc(N4CCNC5(COC5)C4)c4nccnc34)cc(F)c2n1 [Compound 372]
IC50 [1]: > 10 µM
IC50 [2]: > 10 µM
IC50 [3]: > 10 µM
Viability [4]: C (C represents 1000-9999 nM)

Cc1cn2cc(NC(=O)c3ccc(N4CCNCC4)c4nnccc34)cc(F)c2n1 [Compound 166, N-(8-fluoro-2-methylimidazo[1,2-a]pyridin-6-yl)-8-(piperazin-1-yl)cinnoline-5-carboxamide 2,2,2-trifluoroacetate]
IC50 [1]: > 10 µM
IC50 [2]: > 10 µM
IC50 [3]: > 10 µM
Viability [4]: D (D represents greater than 10 μM in K562 cells)

CC(=O)c1cc(NC(=O)c2ccc(N3CCNCC3)c3ccnnc23)cn2cc(C)nc12 [Compound 163, N-{8-acetyl-2-methylimidazo[1,2-a]pyridin-6-yl}-5-(piperazin-1-yl)cinnoline-8-carboxamide]
IC50 [1]: > 10 µM
IC50 [2]: > 10 µM
IC50 [3]: > 10 µM
Viability [4]: C (C represents 1000-9999 nM)

Cc1cn2cc(NC(=O)c3ccc(N4C[C@@H](C)N[C@@H](C)C4)c4ccnnc34)nc(C)c2n1 [Compound 172, N-{2,8-dimethylimidazo[1,2-a]pyrazin-6-yl}-5-[(3R,5S)-3,5-dimethylpiperazin-1-yl]cinnoline-8-carboxamide]
IC50 [1]: > 10 µM
IC50 [2]: 1 to 10 µM
IC50 [3]: > 10 µM
Viability [4]: B (B represents 100-1000 nM)

Cc1cnc2c(N3C[C@@H](C)N[C@@H](C)C3)ccc(C(=O)Nc3cc(F)c4nc(C)cn4c3)c2n1 [Compound 216, 8-((3R,5S)-3,5-dimethylpiperazin-1-yl)-N-{8-fluoro-2-methylimidazo[1,2-a]pyridin-6-yl}-3-methylquinoxaline-5-carboxamide]
IC50 [1]: 1 to 10 µM
IC50 [2]: > 10 µM
IC50 [3]: 1 to 10 µM
Viability [4]: C (C represents 1000-9999 nM)

CNC1CCN(c2ccc(C(=O)Nc3cc(F)c4nc(C)cn4c3)c3nc(OC)cnc23)C1 (stereo not drawn) [Compound 202, N-{8-fluoro-2-methylimidazo[1,2-a]pyridin-6-yl}-3-methoxy-8-[3-(methylamino)pyrrolidin-1-yl]quinoxaline-5-carboxamide; bis(trifluoroacetic acid)]
IC50 [1]: > 10 µM
IC50 [2]: > 10 µM
IC50 [3]: 1 to 10 µM
Viability [4]: A (A represents <100 nM)

O=C(Nc1cn[nH]c1)c1ccc(N2CCNCC2)c2ccnnc12 [Compound 126]
IC50 [1]: > 10 µM
IC50 [2]: > 10 µM
IC50 [3]: > 10 µM

Cc1cn2cc(NC(=O)c3ccc(N4C[C@H]5CC[C@@H](C4)N5)c4ccnnc34)cc(F)c2n1 [Compound 108]
IC50 [1]: 1 to 10 µM
IC50 [2]: 1 to 10 µM
IC50 [3]: > 10 µM

CCC1CN(c2ccc(C(=O)Nc3cc(F)c4nc(C)cn4c3)c3nnccc23)CCN1 (stereo not drawn) [Compound 130]
IC50 [1]: 1 to 10 µM
IC50 [3]: 1 to 10 µM
Viability [4]: B (B represents 100-1000 nM)

Cc1cn2cc(NC(=O)c3ccc(N(C)[C@@H]4C[C@H]5CC[C@@H](C4)N5)c4ccnnc34)cc(F)c2n1 [Compound 156]
IC50 [1]: > 10 µM
IC50 [2]: > 10 µM
IC50 [3]: > 10 µM
